Reference: BindingDB's records for PubMed 35033884 (Indian Institute of Technology (B.H.U.), 2022)

Assay: Inhibition of PDK1 (unknown origin)

IC50	SMILES
4 nM	CN(C)CCNC(=O)c1cccc(-c2c[nH]c(/C=C3\C(=O)Nc4ccc(NC(N)=O)cc43)c2)c1 [3-(5-{[(3Z)-5-(carbamoylamino)-2-oxo-2,3-dihydro-1H-indol-3-ylidene]methyl}-1H-pyrrol-3-yl)-N-[2-(dimethylamino)ethyl]benzamide]
6 nM	C/C(=C1/C(=O)Nc2ccc(NC(N)=O)cc21)c1cc(CNC(=O)C2CCNCC2)c[nH]1 [N-[(5-{1-[(3Z)-5-(carbamoylamino)-2-oxo-2,3-dihydro-1H-indol-3-ylidene]ethyl}-1H-pyrrol-3-yl)methyl]piperidine-4-carboxamide]
8 nM	NC(=O)Nc1ccc2c(c1)/C(=C/c1cc(-c3ccccn3)c[nH]1)C(=O)N2
20 nM	NC(=O)Nc1ccc2c(c1)/C(=C/c1ccc[nH]1)C(=O)N2 [indolinone based inhibitor, 3l]
